Measurements reported in ChEMBL document CHEMBL1221354, “Synthesis of polyhydroxylated aromatics having amidation of piperazine nitrogen as HIV-1 integrase inhibitor” (Bioorg Med Chem Lett, 2010).

Target: Human immunodeficiency virus type 1 integrase (Human immunodeficiency virus 1, UniProt Q7ZJM1)
Assay: Inhibition of HIV1 integrase strand transfer activity after 1 hr

Human immunodeficiency virus type 1 integrase, sequence (Q7ZJM1 whole entry): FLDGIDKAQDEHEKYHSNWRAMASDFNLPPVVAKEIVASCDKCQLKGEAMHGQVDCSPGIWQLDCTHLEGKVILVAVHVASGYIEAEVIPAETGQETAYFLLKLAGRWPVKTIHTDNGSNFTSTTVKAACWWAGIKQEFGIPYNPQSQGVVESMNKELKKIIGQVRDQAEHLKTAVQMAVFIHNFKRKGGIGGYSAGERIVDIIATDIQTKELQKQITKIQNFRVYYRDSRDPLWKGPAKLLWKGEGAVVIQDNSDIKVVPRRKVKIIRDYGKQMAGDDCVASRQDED

Compound | IC50 [µM]
O=C(NCCCN1CCN(C(=O)/C=C/c2ccccc2)CC1)c1ccc(O)c(O)c1 | > 100
Cc1ccc(/C=C/C(=O)N2CCN(CCCNC(=O)c3ccc(O)c(O)c3)CC2)cc1 | > 100
O=C(NCCCN1CCN(C(=O)/C=C/c2ccc(Cl)cc2)CC1)c1ccc(O)c(O)c1 | > 100
O=C(NCCCN1CCN(C(=O)/C=C/c2ccccc2Cl)CC1)c1ccc(O)c(O)c1 | > 100
O=C(NCCCN1CCN(C(=O)/C=C/c2cccc(O)c2)CC1)c1ccc(O)c(O)c1 | > 100
O=C(NCCCN1CCN(C(=O)/C=C/c2ccccc2)CC1)c1cc(O)c(O)c(O)c1 | 12.8
Cc1ccc(/C=C/C(=O)N2CCN(CCCNC(=O)c3cc(O)c(O)c(O)c3)CC2)cc1 | 17.5
O=C(NCCCN1CCN(C(=O)/C=C/c2ccc(Cl)cc2)CC1)c1cc(O)c(O)c(O)c1 | 24.9
O=C(NCCCN1CCN(C(=O)/C=C/c2ccccc2Cl)CC1)c1cc(O)c(O)c(O)c1 | 19.3
O=C(NCCCN1CCN(C(=O)/C=C/c2ccccc2[N+](=O)[O-])CC1)c1cc(O)c(O)c(O)c1 | 31.3
O=C(NCCCN1CCN(C(=O)/C=C/c2cccc(O)c2)CC1)c1cc(O)c(O)c(O)c1 | 15.4
O=C(O)C(=O)CC(=O)c1cc(OCc2ccccc2)cc(OCc2ccccc2)c1 | 0.77
